Key:
[1] = biological target: T1, α5ß2 γ2 GABAA Receptor (Homo sapiens, UniProt P18507+P31644); assay: Assay B: in vitro evaluation of modulation of α5ß2γ2 GABAA receptor, two-electrode voltage clamp in oocytes; format: cell-based; details: for EC50: co-application with 0.5 μM GABA, oocytes, read-out: Assay B: GABAA α 5 β 3 γ 2 EC50
T1 sequence (P31644 32-462): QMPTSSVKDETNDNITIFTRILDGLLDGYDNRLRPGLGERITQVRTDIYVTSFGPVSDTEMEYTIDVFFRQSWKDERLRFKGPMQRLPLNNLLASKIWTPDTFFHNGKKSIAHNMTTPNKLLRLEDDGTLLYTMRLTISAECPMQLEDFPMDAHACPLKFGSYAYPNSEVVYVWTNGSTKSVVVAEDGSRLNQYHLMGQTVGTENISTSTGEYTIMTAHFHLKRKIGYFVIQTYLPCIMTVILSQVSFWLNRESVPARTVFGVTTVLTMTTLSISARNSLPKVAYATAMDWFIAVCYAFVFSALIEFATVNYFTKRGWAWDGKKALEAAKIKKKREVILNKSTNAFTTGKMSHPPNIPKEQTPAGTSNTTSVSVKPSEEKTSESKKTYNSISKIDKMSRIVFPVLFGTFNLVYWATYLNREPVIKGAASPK
T1 sequence (P18507 40-376 limits assumed): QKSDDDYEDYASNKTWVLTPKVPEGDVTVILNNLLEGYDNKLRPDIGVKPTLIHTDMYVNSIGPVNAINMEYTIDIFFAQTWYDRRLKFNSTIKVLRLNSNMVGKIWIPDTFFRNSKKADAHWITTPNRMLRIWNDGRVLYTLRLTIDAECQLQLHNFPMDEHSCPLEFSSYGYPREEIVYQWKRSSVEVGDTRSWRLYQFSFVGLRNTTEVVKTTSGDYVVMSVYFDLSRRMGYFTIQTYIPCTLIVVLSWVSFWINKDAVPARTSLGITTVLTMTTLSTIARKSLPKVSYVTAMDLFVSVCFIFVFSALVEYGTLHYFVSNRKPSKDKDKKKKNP
Protocol: Assay B: In Vitro Evaluation of Modulation of α5ß2 γ2 GABAA Receptor.
Modulatory efficacy of compounds of formular (I) is determined electrophysiological recordings in oocytes using the two-electrode voltage clamp (TEVC) technique. Oocytes are injected with cRNA for human GABAA receptor subunits α5, ß2 and γ2 in a 3:1:3 ratio and modulatory efficacy is evaluated by co-applications with a submaximal EC5-20 GABA concentration (0.5 μM) termed GABA control. As a standard, the compounds are tested in five concentrations (3.16, 0.316, 0.0316, 0.00316 and 0.000316 μM) on each oocyte starting with the lowest concentration. Background subtracted peak current amplitudes are normalized to the respective GABAcontrol current, converted to % change and depicted +/−S.E.M. as a function of increasing compound concentrations. Plotted datapoints are fitted to the empirical Hill equation using non-linear regression. 95% confidence intervals for maximal efficacy (Bottom) and potency (Log EC50) are derived from this fitting routine.

[2] = tested on: human MDR1 P-gp; assay: Assessment of efflux in MDCK cells transfected with the human MDR1 gene; format: in vitro ADME, canine; details: dog, pH 7.4, 37° C.; for Papp A→B: apical-to-basal, read-out: MDCK-PGP A-B; for efflux ratio: read-out: MDCK-PGP Efflux ratio [PEBA/PEAB]
Protocol: Assessment of efflux in Madin-Darby canine kidney (MDCK) cells transfected with the human MDR1 gene to assess brain penetration (Drug Metabolism and Disposition February 2008, 36 (2) 268-275; DOI: https://doi.org/10.1124/dmd.107.017434)
Apparent permeability coefficients (PE) of the compounds across the MDCK-MDR1 cell monolayers are measured (pH 7.4, 37° C.) in apical-to-basal (AB) and basal-to-apical (BA) transport direction. AB permeability (PEAB) represents drug absorption from the blood into the 35 brain and BA permeability (PEBA) drug efflux from the brain back into the blood via both passive permeability as well as active transport mechanisms mediated by efflux and uptake transporters that are expressed on the MDCK-MDR1 cells, predominantly by the overexpressed human MDR1 P-gp. The compounds are assigned to permeability/absorption classes by comparison of the AB permeabilities with the AB permeabilities of reference compounds with known in vitro permeability and oral absorption in the human. Identical or similar permeabilities in both transport directions indicate passive permeation, vectorial permeability points to additional active transport mechanisms. Higher PEBA than PEAB indicates the involvement of active efflux mediated by MDR1 P-gp. Active transport is concentration-dependently saturable.
MDCK-MDR1 cells (1-2×10e5 cells/1 cm2 area) are seeded on filter inserts (Costar transwell polycarbonate or PET filters, 0.4 μm pore size) and cultured (DMEM) for 7 days. Subsequently, the MDR1 expression is boosted by culturing the cells with 5 mM sodium butyrate in full medium for 2 days. Compounds are dissolved in appropriate solvent (like DMSO, 1-20 mM stock solutions). Stock solutions are diluted with HTP-4 buffer (128.13 mM NaCl, 5.36 mM KCl, 1 mM MgSO4, 1.8 mM CaCl2, 4.17 mM NaHCO3, 1.19 mM Na2HPO4×7H2O, 0.41 mM NaH2PO4×H2O, 15 mM HEPES, 20 mM glucose, 0.25% BSA, pH 7.4) to prepare the transport solutions (0.1-300 μM compound, final DMSO <=0.5%). The transport solution (TL) is applied to the apical or basolateral donor side for measuring A-B or B-A permeability (3 filter replicates), respectively. The receiver side contains the same buffer as the donor side. Samples are collected at the start and end of experiment from the donor and at various time intervals for up to 2 hours also from the receiver side for concentration measurement by HPLC-MS/MS or scintillation counting. Sampled receiver volumes are replaced with fresh receiver solution.

[3] = Metabolic stability in human liver microsomes (Human MST); format: in vitro ADME; details: pH 7.6, pooled human liver microsomes, 37° C., read-out: Human MST t½
Protocol: Assessment of Metabolic Stability in Human Liver Microsomes (Human MST) The metabolic stability of the compounds according to the invention may be investigated as follows: The metabolic degradation of the test compound is assayed at 37° C. with pooled human liver microsomes. The final incubation volume of 100 μL per time point contains TRIS buffer pH 7.6 at room temperature (0.1 M), MgCl2 (5 mM), microsomal protein (1 mg/mL) and the test compound at a final concentration of 1 μM. Following a short pre-incubation period at 37° C., the reactions are initiated by addition of beta-nicotinamide adenine dinucleotide phosphate, reduced form (NADPH, 1 mM), and terminated by transferring an aliquot into solvent after different time points. After centrifugation (10000 g, 5 min), an aliquot of the supernatant is assayed by LCMS/MS for the amount of parent compound. The half-life (t1/2) is determined by the slope of the semi-logarithmic plot of the concentration-time profile.

| Compound | Assay B: GABAA α 5 β 3 γ 2 Emax vs GABA [1] [%] | EC50 [1] [nM] | Papp A→B [2] [×10⁻⁶ cm/s] | efflux ratio [2] | half-life at 1 μM [3] [min] |
| --- | --- | --- | --- | --- | --- |
| Cc1nnn(-c2ccc(C(F)F)cn2)c1COc1ccc(-c2ccc(S(C)(=O)=O)nc2)nn1 [Example 16] | -20.3 | 85.9 | 59 | 0.6 | – |
| Cn1nnc(-c2ccc(C(F)F)cn2)c1COc1ccc(-c2cnccn2)nn1 [Example 39] | -24.6 | 354 | 59 | 0.6 | > 130 |
| Cc1n[nH]c(C)c1-c1ccc(OCc2c(C)nnn2-c2ccc(C(F)F)cn2)nn1 [Example 15] | -24.7 | 34.7 | 17 | 3.5 | – |
| Cc1nnn(-c2ccc(C(F)F)cn2)c1COc1ccc(-c2ccc(N)nc2)nn1 [Example 19] | -28.5 | 64 | 41 | 1.2 | – |
| CNc1cccc(-c2ccc(OCc3c(C)nnn3-c3ccc(C(F)F)cn3)nn2)n1 [Example 14] | -21 | 89 | 55 | 0.7 | – |
| Cc1c(-c2ccc(OCc3c(-c4ccc(C(F)F)cn4)nnn3C)nn2)cnn1C [Example 33] | -21 | 29.5 | – | – | 98 |
| Cn1nnc(-c2ccc(C(F)F)cn2)c1COc1ccc(-c2cnn(C3CCC3)c2)nn1 [Example 32] | -3.3 | – | – | – | 78 |
| Cc1nnn(-c2ccc(C(F)F)cn2)c1COc1ccc(-c2ccc(C#N)s2)nn1 [Example 12] | -12.3 | 147 | 51 | 0.3 | – |
| Cn1nnc(-c2ccc(C(F)F)cn2)c1COc1ccc(-c2cnc3nonc3c2)nn1 [Example 35] | -9.6 | 63 | – | – | > 130 |
| Cc1nnn(-c2ccc(C(F)F)cn2)c1COc1ccc(-c2ccc(C#N)nc2)nn1 [Example 8] | 2.7 | – | – | – | > 130 |
| Cc1nnn(-c2ccc(C(F)F)cn2)c1COc1ccc(-c2cnc(N)nc2)nn1 [Example 2] | -25.3 | 92.5 | 34 | 1.9 | – |
| Cc1nnn(-c2ccc(C(F)F)cn2)c1COc1ccc(-n2nccn2)nn1 [Example 43] | -20.2 | 24.8 | 54 | 0.7 | – |
| Cn1nnc(-c2ccc(C(F)F)cn2)c1COc1ccc(-n2cc(C#N)cn2)nn1 [Example 49] | 5.7 | – | – | – | > 130 |

More lines, in order of falling EC50 [1], values ahead:

| Assay B: GABAA α 5 β 3 γ 2 Emax vs GABA [1] [%] | EC50 [1] [nM] | Papp A→B [2] [×10⁻⁶ cm/s] | efflux ratio [2] | half-life at 1 μM [3] [min] | Compound |
| --- | --- | --- | --- | --- | --- |
| -22.5 | 22.8 | 86 | 0.5 | – | Cc1nnn(-c2ccc(C(F)F)cn2)c1COc1ccc(-n2ncnc2C)nn1 [Example 38] |
| -12.3 | 20 | – | – | 127 | COc1ncc(-c2ccc(OCc3c(-c4ccc(C(F)F)cn4)nnn3C)nn2)cn1 [Example 31] |
| -25 | 15.8 | 24 | 1.4 | – | Cc1nnn(-c2ccc(C(F)F)cn2)c1COc1ccc(-n2cnc(C#N)c2)nn1 [Example 42, 1-[6-({1-[5-(difluoromethyl)pyridin-2-yl]-4-methyl-1H-1,2,3-triazol-5-yl}methoxy)pyridazin-3-yl]-1H-imidazole-4-carbonitrile] |
| -20 | 14.6 | 3 | 17.2 | > 130 | Cn1nnc(-c2ccc(C(F)F)cn2)c1COc1ccc(-c2cccc(C(N)=O)c2)nn1 [Example 28] |
| -8.8 | 13.9 | – | – | 116 | Cc1nnn(-c2ccc(C(F)F)cn2)c1COc1ccc(-c2cccc(C(N)=O)c2)nn1 [Example 6] |
| -6.3 | 12.7 | – | – | > 130 | Cc1nnn(-c2ccc(C(F)F)cn2)c1COc1ccc(-c2cnn(CC#N)c2)nn1 [Example 7] |
| -13.7 | 12 | – | – | 130 | Cn1nnc(-c2ccc(C(F)F)cn2)c1COc1ccc(-n2cccn2)nn1 [Example 50] |
| -32.3 | 11.6 | – | – | 83 | Cc1nnn(-c2ccc(C(F)F)cn2)c1COc1ccc(-c2cc[nH]n2)nn1 [Example 5] |
| -29 | 11.5 | – | – | 97 | Cc1c(-c2ccc(OCc3c(-c4ccc(C(F)F)cn4)nnn3C)nn2)cc(C#N)n1C [Example 29] |
| -14.7 | 9.8 | 10 | 6.6 | 62 | Cn1nnc(-c2ccc(C(F)F)cn2)c1COc1ccc(-c2cn[nH]c2)nn1 [Example 24] |
| -11 | 8.2 | – | – | > 130 | Cn1nnc(-c2ccc(C(F)F)cn2)c1COc1ccc(-c2ccc(N)nc2)nn1 [Example 25] |
| -4.7 | 4.6 | – | – | > 130 | Cc1nn(C)cc1-c1ccc(OCc2c(-c3ccc(C(F)F)cn3)nnn2C)nn1 [Example 30] |
| – | 3.9 | – | – | > 130 | Cn1nnc(-c2ccc(C(F)F)cn2)c1COc1ccc(-n2ccc(C#N)n2)nn1 [Example 53] |
| -8 | 3.1 | – | – | > 130 | Cn1nnc(-c2ccc(C(F)F)cn2)c1COc1ccc(-c2ccc(S(C)(=O)=O)nc2)nn1 [Example 23] |

Source: patent publication US20230286946A1, “DIFLUOROMETHYL-PYRIDIN-2-YL TRIAZOLES” (Boehringer Ingelheim International GmbH, priority 2020, published 2023)
